“And” between values parts separate entries of the source, which are not always exact repeats. Equal values may be shown once.
Columns and labels:
Type in all cases: in vivo, Mus musculus
[1] = test system: PD-L1^+ cells in tumor-infiltrating lymphocytes; experiment: Example 1: flow cytometry, percentage of PD-L1 cells in TILs; settings: individual animal
Description: (§1) Mice were sacrificed by CO2 euthanasia at the end of the study duration, and the connective tissue around tumor was resected. The tumor samples were then removed and weighed. The half tissue was fixed in 10% formaldehyde and then embedded in paraffin; the other half was prepared for the isolation of tumor-infiltrating lymphocytes (TILs).
(§2) The half of mouse tumors were dissected into smaller fragments using scalpels and then digested with a cocktail of collagenase, DNase I, and Hyaluronidase (Collagenase #C5138, DNase I #D5025, Hyaluronidase #H6254, SigmaAldrich) for at least 2 hours.
(§3) Cells were stained with the fluorescently conjugated surface antibodies and incubated for 30 minutes at 4° C., and then resuspended in staining buffer for flow cytometric analysis. Flow cytometry was done using a Navios EX Flow Cytometer (Beckman Coulter). Data were analyzed using the Kaluza Analysis Software (Beckman Coulter).

[2] = test system: CD4^+ T helper cells in tumor-infiltrating lymphocytes; experiment: Example 1: flow cytometry, percentage of TH cells in TILs; settings: individual mice
Description: as §1, §2, §3

[3] = test system: NK cells in tumor-infiltrating lymphocytes; experiment: Example 1: flow cytometry, percentage of NK cells in TILs; settings: individual mice
Description: as §1, §2, §3

[4] = test system: CD8^+ cytotoxic T cells (CTL) in tumor-infiltrating lymphocytes; experiment: Example 1: flow cytometry, percentage of CTL cells in TILs
Description: as §1, §2, §3

[5] = test system: HepG2 tumor; experiment: Example 1: tumor volume, tumor weight and TGI in HepG2 tumor bearing humanized mice
Description: (§4) Each group contains five mice. The human hepatocellular carcinoma cell line HepG2 were subcutaneously inoculated to the advanced immune deficiency mice. Total of 30 mice were included in this study.
2.2. […] The subcutaneous injection volume was […].
(§5) 3.1. […] The injection was performed using insulin syringe with the dosage of 10 mg/kg (Dosage of injection was changed to 20 mg/kg from Day 15) and injection volume of 10 mL/kg. […] The reference item was administered for G1. The procedure followed the standards of sample administration.
(§6) 3.2. The test item anti-hPD-L1 antibody or reference items were intraperitoneally injected to the mice on Day 8 after the inoculation of tumor cells. The injection was performed using insulin syringe with the dosage of 10 mg/kg (Dosage of injection was changed to 20 mg/kg from Day 15) and injection volume of 10 mL/kg. The test item anti-hPD-L1 was continuously administered on Day 8, 11, 15, 18, 22, 25, 29 and 32 for G4 and G6. The reference item was administered for G1. The procedure followed the standards of sample administration.
(§7) 3.3. […] The injection was performed using insulin syringe with the dosage of 1 mg/kg and injection volume of 5 mL/kg. […] The reference item was administered for G1. The procedure followed the standards of sample administration.
The measurement was performed from the next day of the inoculation. The tumor volumes were measured and recorded twice a week (Mon., Thur.). Tumor volume was calculated by ellipsoid equation according to the records ((major axis×minor axis×minor axis)×(π/6)).
Tumor volumes were used to calculate tumor growth inhibition (TGI) rates according to the following formula: TGI (%)=[1−(Ti−T0)/(Ci−C0)]×100, where Ti and Ci indicate the mean tumor volume in the treatment groups and vehicle group at the end of the experiment (Day 35). Whereas, T0 and C0 indicate the mean tumor volumes in the treatment group and vehicle group at the beginning of the experiment (Day 1).
as §1

[6] = Example 1: body weight and mortality of HepG2 tumor bearing humanized mice; settings: OBI-3424 1 mg/kg IV, antibody 10 mg/kg IP (20 from Day 15)
Description: as §4, §5, §6, §7
The measurement was performed from the next day of the inoculation. The animal body weights were measured and recorded twice per week.

[7] = TILs, flow cytometer, individual mice
[8] = TILs, gate CD45^+CD8^+ cells, individual mice

For “anti-hPD-1: Anti-Human PD-1 antibody, Pembrolizumab, Merck & Co., Inc.”, the “CD45^+ cells Cell count (×10^6)” value [1] was 7.83 ×10^6 and 6.28 ×10^6 and 2.69 ×10^6 and 2.68 ×10^6 and 3.03 ×10^6, the “CD45^+ cells Gated %” value [1] was 41.15% and 30.42% and 47.95% and 36.87% and 63.31% and the “CD45^+ cells Total %” value [1] was 25.75% and 17.89% and 28.22% and 20.74% and 44.68%. For the same substance, the “Total PD-L1^+ cells (PD-L1^+) Cell count (×10^5)” value [1] was 10.55 ×10^5 and 13.65 ×10^5 and 2.38 ×10^5 and 7.80 ×10^5 and 4.22 ×10^5, the “Total PD-L1^+ cells (PD-L1^+), Total %” value [1] was 3.47% and 3.89% and 2.50% and 6.05% and 6.21% and the “Total PD-L1^+ cells (PD-L1^+), Total cells Gated %” value [1] was 6.45% and 7.52% and 3.68% and 7.83% and 6.95%. The “Total cells Cell count (×10^6)” value [1] was 16.37 ×10^6 and 18.15 ×10^6 and 6.47 ×10^6 and 9.97 ×10^6 and 6.06 ×10^6, the “Total cells Gated %” value [1] was 53.84% and 51.71% and 67.88% and 77.26% and 89.23% and the “Total cells Total %” value [1] was 53.84% and 51.71% and 67.88% and 77.26% and 89.23%. The “CD25^+ TH cells (CD45^+CD4^+ CD25^+) Total %” value ([2]; flow cytometer) was 0.71% and 0.67% and 0.82% and 1.28% and 0.45%, the “PD-1^+ TH cells (CD45^+CD4^+ PD-1^+) Total %” value ([2]; flow cytometer) was 20.78% and 11.99% and 9.21% and 11.61% and 15.49% and the “TH cells (CD45^+CD4^+) Total %” value ([2]; flow cytometer) was 19.18% and 11.07% and 9.76% and 11.17% and 18.23%. For the same substance, the “TH cells (CD45^+CD4^+) CD45^+ Gated %” value ([2]; gate CD45^+ cells) was 74.49% and 61.90% and 34.59% and 53.85% and 40.81%, the “CD25^+ TH cells (CD45^+CD4^+CD25^+) TH Gated %” value ([2]; gate CD45^+CD4^+ cells) was 3.70% and 6.05% and 8.35% and 11.42% and 2.44% and the “PD-1^+ TH cells (CD45^+CD4^+ PD-1^+) TH Gated %” value ([2]; gate CD45^+CD4^+ cells) was 96.11% and 90.08% and 83.23% and 82.55% and 85.27%. For the same substance, the “CD25^+ TH cells (CD45^+CD4^+ CD25^+) Cell count” value [2] was 2.16 ×10^5 and 2.35 ×10^5 and 0.78 ×10^5 and 1.65 ×10^5 and 0.31 ×10^5, the “PD-1^+ TH cells (CD45^+CD4^+ PD-1^+) Cell count” value [2] was 63.17 ×10^5 and 42.08 ×10^5 and 8.78 ×10^5 and 14.98 ×10^5 and 10.52 ×10^5 and the “TH cells (CD45^+CD4^+) Cell count” value [2] was 58.31 ×10^5 and 38.86 ×10^5 and 9.30 ×10^5 and 14.41 ×10^5 and 12.38 ×10^5. The “CD16^+ NK cells (CD45^+CD56^+ CD16^+) Total %” value ([3]; flow cytometer) was 0.41% and 0.32% (2×) and 0.44% and 0.79%, the “NK cells (CD45^+CD56^+) Total %” value ([3]; flow cytometer) was 2.91% and 1.08% and 3.01% and 1.93% and 4.76% and the “PD-1^+ NK cells (CD45^+CD56^+PD-1^+) Total %” value ([3]; flow cytometer) was 2.67% and 1.13% and 2.36% and 1.46% and 1.78%. The “NK cells (CD45^+CD56^+) CD45^+ Gated %” value ([3]; gate CD45^+ cells) was 12.27% and 6.34% and 12.96% and 9.57% and 12.69%, the “CD16^+ NK cells (CD45^+CD56^+ CD16^+) NK Gated %” value ([3]; gate CD45^+CD56^+ cells) was 13.94% and 29.77% and 14.48% and 16.58% and 16.61% and the “PD-1^+ NK cells (CD45^+CD56^+PD-1^+) NK Gated %” value ([3]; gate CD45^+CD56^+ cells) was 99.81% and 100.00% and 87.08% and 98.31% and 64.90%. The “CD16^+ NK cells (CD45^+CD56^+ CD16^+) Cell count” value [3] was 1.25 ×10^5 and 1.12 ×10^5 and 0.42 ×10^5 and 0.41 ×10^5 and 0.54 ×10^5, the “NK cells (CD45^+CD56^+) Cell count” value [3] was 8.85 ×10^5 and 3.79 ×10^5 and 2.87 ×10^5 and 2.49 ×10^5 and 3.23 ×10^5 and the “PD-1^+ NK cells (CD45^+CD56^+PD-1^+) Cell count” value [3] was 8.12 ×10^5 and 3.97 ×10^5 and 2.25 ×10^5 and 1.88 ×10^5 and 1.21 ×10^5. For the same substance, the “CD8^+ cytotoxic T cells (CTL) population in tumors compared with vehicle (in words)” value ([4]; Example 1, TILs at sacrifice, flow cytometry) was “not observed”, the “CD25^+ CTL cells (CD45^+CD8^+ CD25^+) Total %” value [4, 7] was 0.26% and 0.10% and 0.65% and 0.84% and 0.41% and the “CTL cells (CD45^+CD8^+) Total %” value [4, 7] was 9.30% and 6.22% and 21.30% and 11.17% and 24.91%. The “PD-1^+ CTL cells (CD45^+CD8^+ PD-1^+) Total %” value [4, 7] was 10.83% and 9.53% and 15.71% and 10.88% and 14.41%, the “CTL cells (CD45^+CD8^+) CD45^+ Gated %” value ([4]; TILs, gate CD45^+ cells, individual mice) was 36.10% and 34.75% and 75.47% and 53.85% and 55.75% and the “CD25^+ CTL cells (CD45^+CD8^+ CD25^+) CTL Gated %” value [4, 8] was 2.80% and 1.53% and 3.05% and 7.48% and 1.65%. For the same substance, the “PD-1^+ CTL cells (CD45^+CD8^+ PD-1^+) CTL Gated %” value [4, 8] was 89.36% and 84.37% and 66.70% and 66.59% and 57.38%, the “CD25^+ CTL cells (CD45^+CD8^+ CD25^+) Cell count” value ([4]; TILs, individual mice) was 0.79 ×10^5 and 0.35 ×10^5 and 0.62 ×10^5 and 1.08 ×10^5 and 0.28 ×10^5 and the “CTL cells (CD45^+CD8^+) Cell count” value ([4]; TILs, individual mice) was 28.27 ×10^5 and 21.83 ×10^5 and 20.30 ×10^5 and 14.41 ×10^5 and 16.91 ×10^5. For the same substance, the “PD-1^+ CTL cells (CD45^+CD8^+ PD-1^+) Cell count” value ([4]; TILs, individual mice) was 32.92 ×10^5 and 33.45 ×10^5 and 14.97 ×10^5 and 14.04 ×10^5 and 9.78 ×10^5, the “Tumor volume, Mean” value ([5]; D 1, group mean, OBI-3424 1 mg/kg IV, antibody 10 mg/kg IP (20 from Day 15)) was 354.80 mm^3 and the “Tumor volume, Mean” value ([5]; D 4, group mean, OBI-3424 1 mg/kg IV, antibody 10 mg/kg IP (20 from Day 15)) was 269.37 mm^3. The “Tumor volume, Mean” value ([5]; D 7, group mean, OBI-3424 1 mg/kg IV, antibody 10 mg/kg IP (20 from Day 15)) was 301.61 mm^3, the “Tumor volume, Mean” value ([5]; D 11, group mean, OBI-3424 1 mg/kg IV, antibody 10 mg/kg IP (20 from Day 15)) was 339.50 mm^3 and the “Tumor volume, Mean” value ([5]; D 14, group mean, OBI-3424 1 mg/kg IV, antibody 10 mg/kg IP (20 from Day 15)) was 393.76 mm^3. The “Tumor volume, Mean” value ([5]; D 18, group mean, OBI-3424 1 mg/kg IV, antibody 10 mg/kg IP (20 from Day 15)) was 735.09 mm^3, the “Tumor volume, Mean” value ([5]; D 21, group mean, OBI-3424 1 mg/kg IV, antibody 10 mg/kg IP (20 from Day 15)) was 880.07 mm^3 and the “Tumor volume, Mean” value ([5]; D 25, group mean, OBI-3424 1 mg/kg IV, antibody 10 mg/kg IP (20 from Day 15)) was 947.95 mm^3. The “Tumor volume, Mean” value ([5]; D 28, group mean, OBI-3424 1 mg/kg IV, antibody 10 mg/kg IP (20 from Day 15)) was 1171.03 mm^3, the “Tumor volume, Mean” value ([5]; D 32, group mean, OBI-3424 1 mg/kg IV, antibody 10 mg/kg IP (20 from Day 15)) was 1366.17 mm^3 and the “Tumor volume, Mean” value ([5]; D 35, group mean (mean±SEM), OBI-3424 1 mg/kg IV, antibody 10 mg/kg IP (20 from Day 15)) was 1613.37±338.07 mm^3 and 1613.37 mm^3. The “Tumor weight, Mean” value ([5]; D 35, group mean, OBI-3424 1 mg/kg IV, antibody 10 mg/kg IP (20 from Day 15)) was 1266.48 mg, the “mean tumor volume compared with vehicle (in words)” value ([5]; Day 35, vs vehicle (G1), Student's t-test) was “No statistically significant difference” and the “effect on tumor growth (conclusion in words)” value ([5]; HepG2 humanized mouse model) was “no effect on tumor growth”. The TGI ([5]; from mean tumor volumes Day 35 vs Day 1, relative to vehicle, OBI-3424 1 mg/kg IV, antibody 10 mg/kg IP (20 from Day 15)) was −9.69%, the “Body Weight, Mean” value ([6]; Day 0, group mean) was 22.84 g and the “Body Weight, Mean” value ([6]; Day 1, group mean) was 22.47 g. For the same substance, the “Body Weight, Mean” value ([6]; Day 4, group mean) was 23.47 g, the “Body Weight, Mean” value ([6]; Day 7, group mean) was 23.48 g and the “Body Weight, Mean” value ([6]; Day 11, group mean) was 23.90 g. For the same substance, the “Body Weight, Mean” value ([6]; Day 14, group mean) was 23.94 g, the “Body Weight, Mean” value ([6]; Day 18, group mean) was 24.30 g and the “Body Weight, Mean” value ([6]; Day 21, group mean) was 23.59 g. The “Body Weight, Mean” value ([6]; Day 25, group mean) was 23.42 g, the “Body Weight, Mean” value ([6]; Day 28, group mean) was 22.52 g and the “Body Weight, Mean” value ([6]; Day 32, group mean) was 22.55 g. For the same substance, the “Body Weight, Mean” value ([6]; Day 35, group mean) was 22.77 g.

— US20240216401A1, “COMBINATION THERAPY BY USING AKR1C3-ACTIVATED COMPOUND WITH IMMUNE CHECKPOINT INHIBITOR” (OBI Pharma, Inc., priority 2021, published 2024)
